Measured values as given in patent US5866556A, “Pyridinylbisphosphonates for use as a therapeutical agent” (Leiras Oy, priority 1994, dated 1999).
Like-named read-outs stand apart in the source and are kept apart here.

What was measured:
[1] = Binding to bone mineral (hydroxyapatite crystals, 14C-clodronate); conditions: for Binding to bone mineral: two hours; for Binding to hydroxyapatite (in words): up to 500 μM, physiological pH, in vitro
Protocol: (§1) Newborn mice were labeled by a subcutaneous injection of ^45 Ca four days prior to sacrifice. Calvarial bone fragments were microdissected from the parietal bones, preincubated in culture medium with indomethacin, washed and then cultured for three days with and without the compound I. Bone resorption was stimulated by parathyroid hormone (PTH, 10 nM) and an inhibitory effect on this stimulated resorption was measured. […] For the determination of the binding of compound I to bone mineral, ^14 C-disodium clodronte tetrahydrate and hydroxyapatite crystals were incubated at room temperature in barbituric acid buffer at physiological pH in the absence and presence of the compound I in various concentrations. After two hours incubation, the mixture was centrifuged, and the percent of the total specifically bound radioactivity was measured from the supernatant. No binding of the compound I to hydroxyapatite was found at up to 500 μM concentration (Table 3).

[2] = system: immobilization induced osteoporosis (femur bone area); experiment: Effect on immobilization induced osteoporosis (sciatic nerve section) in rats; format: in vivo, Sprague-Dawley rat; conditions: for Immobilized leg, femur total bone area: mean (SE), control 5.3 (0.6); for Femoral bone area in the immobilized leg / bone loss prevention (in words): sciatic nerve section
Protocol: Male Sprague-Dawley rats weighing 200±25 g were randomized by weight into groups and anesthetized with Hypnorm/Mebunat and Temgesic. A dorsolateral incision was made on the right or left hip through which the sciatic nerve was exposed, and a 0.5 cm section excised. The muscle and skin were sutured and the animal returned to its cage. The contralateral leg was left intact. The compound I dissolved in physiological saline was administered by subcutaneous injection daily at different dose levels from two days before the surgery until the day of 20 postneurectomy. Control animals received physiological saline. Animals double-labeled with fluorochrome at standardized time points were sacrificed at 21 days postneurectomy and their femora were removed. Femora were embedded in methylmetacrylate, sectioned, and stained. The metphyseal secondary spongiosa and the diaphyseal cortical bone of the femora were subjected to histomorphometric analysis. In control rats, femural total bone area decreased in the immobilized leg.

[3] = system: spontaneous bone resorption; experiment: Effect on spontaneous bone resorption assessed by urinary tetracycline excretion from prelabeled rats; format: in vivo, Sprague-Dawley rat; conditions: for Inhibition of tetracycline excretion: n=5, mean (SE); for Inhibition of excretion of radiolabeled tetracycline / spontaneous bone resorption (in words): rats, s.c.
Protocol: Male Sprague-Dawley rats were used. From the first week of life, the rats were injected subcutaneously with a solution containing 10 μCi/ml of (7-^3 H(N))tetracycline dissolved in physiological saline. The injections were performed twice weekly for 6 weeks. Every animal received a total amount of 20 μCi radiolabeled tetracycline. All animals were given normal diet for growing animals and water ad libitum. One week after the last injection of radiolabeled tetracycline, the rats were weighed and feeding with diet for adult animals was started. At fifth day the rats were randomized into groups and housed in individual metabolic cages. 24-h urine collections were performed for ten days. From the second day [(2-pyridinylamino)methylidene]bisphosphonic acid tetraethylester, compound I, dissolved in physiological saline was injected subcutaneously at different dose levels daily for six days. Control animals received physiological saline. Urine volume was measured and the radioactivity in urine samples was determined by liquid scintillation counting. The data was calculated as the ratio of treated/control at each day for the determination of maximal inhibition of tetracycline excretion.
Excretion of unmetabolized tetracycline into urine reflects its removal from bone during resorptive processes and thus enables the continual monitoring of bone resorption.

[4] = system: PTH-stimulated bone resorption, mice calvaria; experiment: Inhibition of PTH-stimulated resorption of calvarial bone in vitro; format: cell-based, mouse; conditions: for Inhibition of bone resorption in vitro, mice calvaria (in words): except at very high, unphysiological concentrations, calcium release
Protocol: as §1

[5] = Pharmacokinetics: urinary excretion of parent compound and bioavailability from urine; format: in vivo, rat; conditions: for Urinary excretion 0-24 h as parent compound / dose excreted at 24 h: single dose 114 mg/kg; for Urinary excretion 0-24 h as parent compound: 1440 min; for dose excreted at 24 h: urine, read-out: Urinary excretion 0-24 h as parent compound
Protocol: (§2) Pharmacokinetics of the compound [(2-pyridinylamino)methylidene]bisphosphonic acid tetraethylester was studied in rats. Minor amounts of an intravenous dose was excreted as a parent compound during 24 hours into urine supporting extensive metabolism as well. About half of the oral dose of the said compound was absorbed in rats.
(§3) Bioavailability was determined from the total amount of compound excreted into urine during 24 hours or from the serum concentration data at different time points after oral administration and intravenous administration. The urine and serum samples were analyzed for the test compound I with high pressure liquid chromatographic methods. […] Bioavailability of compound I assessed by serum concentration data was 44%.

[6] = Pharmacokinetics: serum AUC and bioavailability from serum concentration data; format: in vivo; conditions: rat; for AUC(0-inf): single dose 114 mg/kg, read-out: AUC0->.infin.
Protocol: as §2, §3

[7] = listed as [(2-pyridinylamino)methylidene]bisphosphonic acid tetraethylester

With CCOP(=O)(OCC)C(Nc1ccccn1)P(=O)(OCC)OCC [I, [(2-pyridinylamino)methylidene]bisphosphonic acid tetraethylester] the “Binding to bone mineral” value ([1]; 5 μmol/l) was “No binding”, the “Binding to bone mineral” value ([1]; 100 μmol/l) was “No binding” and the “Binding to bone mineral” value ([1]; 200 μmol/l) was “No binding”. The “Binding to bone mineral” value ([1]; 500 μmol/l) was “No binding”, the “Binding to hydroxyapatite (in words)” value [1, 7] was “did not show either any binding on hydroxyapatite crystals in vitro” and the “Binding to hydroxyapatite (in words)” value ([1]; listed as compound I) was “No binding”. The “Immobilized leg, femur total bone area” value ([2]; 1 mg/kg s.c. daily, n=4) was 6.0 (1.3) %, the “Immobilized leg, femur total bone area” value ([2]; 75 mg/kg s.c. daily, n=5) was 24.5 (2.5) % and the “Immobilized leg, femur total bone area” value ([2]; 200 mg/kg s.c. daily, n=7) was 35.5 (1.7) %. The “Immobilized leg, femur total bone area” value ([2]; 37,5 mg/kg s.c. daily, n=5) was 17.3 (2.0) %, the “Mineral apposition rate of cortical bone” value ([2]; rats, s.c., data not presented) was “No deleterious effects” and the “Femoral bone area in the immobilized leg / bone loss prevention (in words)” value ([2]; rats, s.c., listed as [(2-pyridinylamino)methylidene]bisphosphonic acid tetraethylester) was “effective in preventing bone loss”. The “Femoral bone area in the immobilized leg / bone loss prevention (in words)” value ([2]; rats, s.c., listed as compound I) was “increased dose-dependently femoral bone area in the immobilized leg”, the “Inhibition of tetracycline excretion” value ([3]; 1 mg/kg s.c. daily for six days) was 12.2 (6.4) % and the “Inhibition of tetracycline excretion” value ([3]; 10 mg/kg s.c. daily for six days) was 19.8 (5.9) %. The “Inhibition of tetracycline excretion” value ([3]; 100 mg/kg s.c. daily for six days) was 50.0 (6.1) %, the “Inhibition of tetracycline excretion” value ([3]; 200 mg/kg s.c. daily for six days) was 72.9 (2.6) % and the “Inhibition of excretion of radiolabeled tetracycline / spontaneous bone resorption (in words)” value [3, 7] was “decreased spontaneous bone resorption”. For the same molecule, the “Inhibition of excretion of radiolabeled tetracycline / spontaneous bone resorption (in words)” value ([3]; listed as compound I) was “dose-dependently inhibited”, the “Inhibition of PTH-stimulated resorption, 100 (PTH - x)/PTH” value (“Inhibition of PTH-stimulated resorption” for short) ([4]; 1 μmol/l, PTH 10 nM, three days culture) was “No inhibiton” and the “Inhibition of PTH-stimulated resorption” value ([4]; 10 μmol/l, PTH 10 nM, three days culture) was “No inhibition”. The “Inhibition of PTH-stimulated resorption” value ([4]; 100 μmol/l, PTH 10 nM, three days culture) was “No inhibition”, the inhibition at 1000 µM ([4]; Mus musculus, 72 h, 1000 μmol/l, PTH 10 nM, three days culture, (SE), read-out: Inhibition of PTH-stimulated resorption, 100 (PTH - x)/PTH) was 12.9% and the “Inhibition of bone resorption in vitro, mice calvaria (in words)” value [4] was “no inhibition of resorption in vitro was shown except at very high, unphysiological concentrations”. The “Inhibition of bone resorption in vitro, mice calvaria (in words)” value [4, 7] was “No effect”, the “Urinary excretion 0-24 h as parent compound” value ([5]; i.v., 114 mg/kg) was 13.6 % of dose and the “Urinary excretion as a parent compound during 24 hours (in words)” value ([5]; intravenous dose, rats) was “Minor amounts”. The “Absorption of the oral dose (in words)” value ([5]; oral, rats) was “About half”, the “Urinary excretion 0-24 h as parent compound” value ([5]; p.o., 114 mg/kg) was 7.8 % of dose and the bioavailability at 24 h ([5]; rat, po, p.o. vs i.v., 114 mg/kg, urine 0-24 h, read-out: Bioavailability F from urinary excretion) was 58%. The dose excreted at 24 h ([5]; rat, iv, 114 mg/kg, i.v.) was 14%, the dose excreted at 24 h ([5]; rat, po, 114 mg/kg, p.o.) was under 10% and the AUC(0-inf) ([6]; iv) was 139000 ng·h/mL. The bioavailability ([6]; po, p.o. vs i.v., 114 mg/kg, read-out: Bioavailability F from serum concentration data (AUC)) was 44% and the AUC(0-inf) ([6]; po) was 60700 ng·h/mL.
